Assay results as given in ChEMBL document CHEMBL3797106, “Potent and Selective Agonists of Sphingosine 1-Phosphate 1 (S1P1): Discovery and SAR of a Novel Isoxazole Based Series” (J Med Chem, 2016).

Key:
[1] = Plasma concentration in Lewis rat at 0.3 mg/kg, po measured at 24 hrs; assay type: ADME, organism-based
Mus musculus [2] = assay: Inhibition of demyelination in spinal cord of po dosed C57BL/6 mouse experimental autoimmune encephalomyelitis model of multiple sclerosis administered as qd for 24 days started from day of immunization; assay type: functional, organism-based
[3] = Clearance in rat at 2 mg/kg, iv; assay type: ADME, organism-based; settings: in vivo
[4] = Volume of distribution at steady state in mouse at 2 mg/kg, iv; assay type: ADME, organism-based; settings: in vivo, read-out: Vdss
Rattus norvegicus = assay: Antiarthritic activity in complete Freund's adjuvant-induced Lewis rat arthritis model assessed as suppression of paw swelling at 0.1 mg/kg, po qd for 21 days started from day of immunization measured 3 times per week of compound dosing by water displacement plethysmometry relative to control; assay type: functional
[5] = Clearance in dog at 1 mg/kg, iv; assay type: ADME, organism-based, Canis lupus familiaris; settings: in vivo
Cytochrome P450 3A4 = Cytochrome P450 3A4 (Homo sapiens, UniProt P08684); assay: Inhibition of CYP3A4 (unknown origin); assay type: ADME
[6] = AUC in rat at 5 mg/kg, po; assay type: ADME, organism-based; settings: in vivo
Mus musculus [7] = assay: Ratio of Cmax to Cmin in mouse at 10 mg/kg, po; assay type: ADME, organism-based; settings: in vivo
[8] = Oral bioavailability in rat at 5 mg/kg; assay type: ADME, organism-based; settings: in vivo
[9] = Plasma protein binding in mouse; assay type: ADME, cell-free; settings: read-out: PPB
[10] = target: Sphingosine 1-phosphate receptor 1 (Homo sapiens, UniProt P21453); assay: Induction of internalization of C-terminal GFP-fused human S1P1 receptor expressed in CHO […] after 50 mins; assay type: cell-based
Sphingosine 1-phosphate receptor 1, sequence (P21453 whole entry, the tested form may be a part): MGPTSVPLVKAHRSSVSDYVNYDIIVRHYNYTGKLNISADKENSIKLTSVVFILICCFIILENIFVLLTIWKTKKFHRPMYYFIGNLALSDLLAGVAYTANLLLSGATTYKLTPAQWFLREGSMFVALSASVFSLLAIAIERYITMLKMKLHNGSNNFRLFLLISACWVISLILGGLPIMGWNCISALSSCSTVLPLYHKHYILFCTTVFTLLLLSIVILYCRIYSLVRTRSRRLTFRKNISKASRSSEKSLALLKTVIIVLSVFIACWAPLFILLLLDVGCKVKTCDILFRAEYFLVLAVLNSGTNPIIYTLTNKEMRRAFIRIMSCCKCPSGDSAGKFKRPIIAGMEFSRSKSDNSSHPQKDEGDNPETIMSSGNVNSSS

Cytochrome P450 3A4, sequence (P08684 whole entry): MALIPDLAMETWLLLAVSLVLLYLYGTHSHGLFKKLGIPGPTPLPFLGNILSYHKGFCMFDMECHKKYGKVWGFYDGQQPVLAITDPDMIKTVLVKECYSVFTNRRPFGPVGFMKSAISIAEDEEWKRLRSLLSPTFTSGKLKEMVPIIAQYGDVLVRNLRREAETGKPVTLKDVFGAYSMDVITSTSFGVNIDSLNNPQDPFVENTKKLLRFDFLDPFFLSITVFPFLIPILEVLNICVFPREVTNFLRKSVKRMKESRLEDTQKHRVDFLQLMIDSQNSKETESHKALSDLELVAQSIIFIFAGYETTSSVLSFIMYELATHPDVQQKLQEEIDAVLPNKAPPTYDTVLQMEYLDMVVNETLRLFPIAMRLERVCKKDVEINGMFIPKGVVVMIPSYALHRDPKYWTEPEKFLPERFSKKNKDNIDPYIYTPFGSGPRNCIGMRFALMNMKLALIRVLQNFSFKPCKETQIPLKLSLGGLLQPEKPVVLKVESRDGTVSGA

## O=C(O)C1CN(Cc2ccc(-c3noc(-c4onc(-c5ccccc5)c4C(F)(F)F)n3)cc2)C1
[1]
  concentration at 24 h: 25 nM
Mus musculus [2]
  inhibition: Dose-dependent effect
[3]
  clearance: 1.7 mL/min/kg
[4]
  Vd: 0.2 L/kg
Rattus norvegicus
  Activity: >50%
[5]
  clearance: 1.6 mL/min/kg
Cytochrome P450 3A4
  IC50: > 40000 nM
[6]
  AUC: 44 µM·h
Mus musculus [7]
  Ratio: 2
[8]
  bioavailability: 52%
[9]
  fraction unbound: 0.001
[10]
  EC50: 0.27 nM
